Values after ≈ are worked out from the molar mass of the structure shown.
Columns and labels:
[1] = Toxicity in brine shrimp larvae; format: organism-based; details: artemia, in vivo
A549 = assay: Cytotoxicity against human A549 cells after 7 days by MTT assay; format: functional; details: A549, 168 h, read-out: ED50 (the source's name)
MCF7 = assay: Cytotoxicity against human MCF7 cells after 7 days by MTT assay; format: functional; details: MCF7, 168 h, read-out: ED50 (the source's name)
HT-29 = assay: Cytotoxicity against human HT29 cells after 7 days by MTT assay; format: functional; details: for EC50: Homo sapiens, HT-29, 168 h, read-out: ED50 (the source's name)
A498 = assay: Cytotoxicity against human A498 cells after 7 days by MTT assay; format: functional; details: A498, 168 h, read-out: ED50 (the source's name)
PC-3 = assay: Cytotoxicity against human PC3 cells after 7 days by MTT assay; format: functional; details: PC-3, 168 h, read-out: ED50 (the source's name)
MIA PaCa-2 = assay: Cytotoxicity against human MIAPaCa2 cells after 7 days by MTT assay; format: functional; details: MIA PaCa-2, 168 h, read-out: ED50 (the source's name)

SMILES	LC50 [1] [µg/mL]	EC50 (A549) [µg/mL]	EC50 (MCF7) [µg/mL]	EC50 (HT-29) [µg/mL]	EC50 (A498) [µg/mL]	EC50 (PC-3) [µg/mL]	EC50 (MIA PaCa-2) [µg/mL]	ED50 (HT-29) [×10⁻⁵ ug/ml]
CCCCCCCCCCCCCCC(Cl)[C@@H]1CC[C@H]([C@@H]2CC[C@@H](CCCCC[C@H](Cl)CC3=C[C@H](C)OC3=O)O2)O1 (stereo not given in full)	31.9 (≈ 51.8 µM)	2.39 (≈ 3.88 µM)	> 10	> 10	2.47 (≈ 4.01 µM)	0.755 (≈ 1.23 µM)	1.16 (≈ 1.88 µM)	–
CCCCCCCCCCCCCC[C@H](O)[C@@H]1CC[C@@H]([C@@H]2CC[C@@H](CCCCC[C@@H](O)CC3=C[C@H](C)OC3=O)O2)O1 [ASIMILOBIN]	–	–	–	0.063 (≈ 0.109 µM)	–	–	–	–
CCCCCCCCCCCCCC[C@@H](O)[C@H](O)CC[C@H](O)[C@@H]1CC[C@@H](CCCCC[C@H](Cl)CC2=C[C@H](C)OC2=O)O1	54.6 (≈ 88.7 µM)	> 10	5.74 (≈ 9.33 µM)	0.38 (≈ 0.618 µM)	> 10	> 10	> 10	–
COc1cccc2c1C(=O)c1c(O)c3c(c(O)c1C2=O)C[C@@](O)(C(=O)CO)C[C@@H]3O[C@H]1C[C@H](N)[C@H](O)[C@H](C)O1 [DOXORUBICIN]	–	0.0243 (≈ 0.0447 µM)	0.209 (≈ 0.385 µM)	0.0346 (≈ 0.0637 µM)	0.00649 (≈ 0.0119 µM)	0.0262 (≈ 0.0482 µM)	0.0079 (≈ 0.0145 µM)	–
CCCCCCCCCCCCCC[C@@H](O)[C@H](O)CC[C@H](O)[C@@H]1CC[C@@H](CCCCC[C@@H](O)CC2=C[C@H](C)OC2=O)O1 [GIGANTETROCIN A]	2.6 (≈ 4.36 µM)	0.25 (≈ 0.419 µM)	0.63 (≈ 1.06 µM)	–	–	–	–	4.1
